Laboratory results reported in patent publication US20240024466A1, “LIPIDOID COMPOSITIONS AND METHODS OF USE THEREOF” (Trustees of Tufts College, priority 2020, published 2024).

Experiments:
dengue virus = test: nAb response to a protein-based dengue virus vaccine with TLR ligands; conditions: in vivo
Excerpt: The two TLR ligands individually will be produced and in combination into mRNA-LNPs and test if they enhance nAb response and reduce antibody-dependent enhancement. The mechanisms underlying the enhanced nAb response will be investigated for further adjuvant optimization.

draining lymph nodes = test: In vivo mRNA delivery, luciferase mRNA expression in draining lymph nodes; conditions: adjuvant incorporated into the LNP
STING pathway [1] = test: In vitro ifnb1 and cxcl10 gene expression by RT PCR; format: cell-based; conditions: RAW264.7, 150 nM cGAMP, 4 h
B16F10 tumors = test: Immunocellular composition of the tumor microenvironment (flow cytometry); conditions: 48 h after the second injection
Experimental: To further evaluate the changes of the cellular composition after the treatment, the tumors were collected at 48 h after the second injection. The tumors were dissociated to single cells, stained with antibodies, and analyzed by the flowcytometry (FIG. 11).
After 48 h post the second injection, the tumors were collected and suspended to single cell solutions by 40 μm strainer (Thermo-Fisher). The cells were collected, washed with PBS, and stained with fluorescent antibodies of CD4 (APC-Cy7), CD8a (PE-Cy5), CD45 (PE), CD3e (FITC), F4/80 (APC), and CD11c (APC) in Flow Cytometry Staining Buffer (eBioscience). Fluorescent signal was measured using LSR-II flow cytometer (BD Biosciences). The data was analyzed by FlowJo-v10.

STING pathway [2] = test: In vitro ifnb1 and cxcl10 gene expression by RT PCR; format: cell-based; conditions: DC2.4, 150 nM cGAMP, 4 h
STING pathway [3] = test: In vivo ifnb1 and cxcl10 gene expression in tumors by RT PCR; set-up: species or system C57BL/6 mice; conditions: intratumoral, one day after DOX injection, 6 h post second injection
C57BL/6 mice = test: OVA prime-boost immunization with LNP formulations, antibody response by ELISA; conditions: rough library screening, OVA formulated with LNPs, injections at day 1 and day 14, FIG. 7B
B16F10 tumor = test: Treatment of B16F10 tumor by in situ vaccination; format: in vivo, C57BL/6 mice; conditions: DOX day 0, second and third injection day 1 and 5, intratumoral
BALB/c mice = conditions: s.c., IVIS 5 h after second injection

Molecule: Pam3CSK4
- nAb responses to a protein-based dengue virus vaccine (dengue virus): dramatically augment
- expression of luciferase mRNA in draining lymph nodes (draining lymph nodes): increased

Molecule: Nc1nc2c(ncn2[C@@H]2O[C@@H]3COP(=O)(O)O[C@H]4[C@@H](O)[C@H](n5cnc6c(N)ncnc65)O[C@@H]4COP(=O)(O)O[C@@H]2[C@@H]3O)c(=O)[nH]1 [cGAMP, 2′5′-3′5′ cyclic guanosine monophosphate-adenosine monophosphate]
- expression of ifnb1 gene compared with PBS-treated cells (STING pathway [1]): modest increase
- population of CD4+ and CD8+ T cells at tumor sites (B16F10 tumors): increasement
- expression of ifnb1 gene compared with PBS-treated cells (STING pathway [2]): modest increase
- expression of ifnb1 and cxcl10 genes in B16F10 tumors (STING pathway [3]): modest increase

Molecule: poly I:C
- nAb responses to a protein-based dengue virus vaccine (dengue virus): dramatically augment

Molecule: lipopolysaccharide [LPS]
- IgG1 antibody response (C57BL/6 mice): extremely positive

Molecule: COc1cccc2c1C(=O)c1c(O)c3c(c(O)c1C2=O)C[C@@](O)(C(=O)CO)C[C@@H]3O[C@H]1C[C@H](N)[C@H](O)[C@H](C)O1 [DOX, doxorubicin]
- population of CD4+ and CD8+ T cells at tumor sites (B16F10 tumors): did not make significant changes
- tumor growth inhibition (tumor volumes) (B16F10 tumor): slight inhibition
- expression of ifnb1 and cxcl10 genes in B16F10 tumors (STING pathway [3]): did not changed significantly

B1: ovalbumin (protein, UniProt P01012 2-386, looked up)
Ovalbumin: GSIGAASMEFCFDVFKELKVHHANENIFYCPIAIMSALAMVYLGAKDSTRTQINKVVRFDKLPGFGDSIEAQCGTSVNVHSSLRDILNQITKPNDVYSFSLASRLYAEERYPILPEYLQCVKELYRGGLEPINFQTAADQARELINSWVESQTNGIIRNVLQPSSVDSQTAMVLVNAIVFKGLWEKAFKDEDTQAMPFRVTEQESKPVQMMYQIGLFRVASMASEKMKILELPFASGTMSMLVLLPDEVSGLEQLESIINFEKLTEWTSSNVMEERKIKVYLPRMKMEEKYNLTSVLMAMGITDVFSSSANLSGISSAESLKISQAVHAAHAEINEAGREVVGSAEAGVDAASVSEEFRADHPFLFCIKHIATNAVLFFGRCVSP
- IgG1 antibody response (C57BL/6 mice): very low antibody response

B2: OVA^Alexa-647: Alexa Fluor 647-conjugated OVA, model antigen (protein, UniProt P01012 2-386, looked up)
Ovalbumin: B1 Ovalbumin
modifications: Alexa Fluor 647 label
- distribution of OVA^Alexa-647 fluorescence signal (BALB/c mice): mainly distributed in bladder
